Measurements published in patent publication US20220009914A1, “Analogs of Nitrofuran Antibiotics to Combat Resistance” (The Trustees of Indiana University, priority 2020, published 2022).
Read-outs that look alike come from different tables or passages of the source.

Key:
[1] = test system: Klebsiella pneumoniae strain NCTC 9633 (ATCC #13883); experiment: bacterial proliferation assay, K. pneumoniae; format: cell-based; settings: Klebsiella pneumoniae, read-out: Bacterial Proliferation EC50 K. pneumoniae
Experimental: (§1) All compounds were evaluated for inhibiting the proliferation of E. coli and each of the ESKAPE bacteria. Results presented represent the averages of EC50 values obtained from at least four replicates. Evaluating compounds for inhibition of bacterial cell proliferation.
(§2) Growth Media: E. coli were grown with LB medium and all ESKAPE bacteria were grown in Brain Heart Infusion (BHI) medium (Becton, Dickinson and Company), with all liquid cultures supplemented with 25 mg/L Ca^2+ and 12.5 mg/L Mg^2+ to mimic physiological free concentrations of these cations. A 10 mg/mL Ca^2+ stock solution was prepared by dissolving 1.84 g of CaCl2.2H2O in 50 mL of deionized water, and a 10 mg/mL Mg^2+ stock solution was prepared by dissolving 4.18 g of MgCl2.6H2O in 50 mL deionized water—filter sterilized using 0.2 μm cellulose-acetate filters. 2.5 mL of the sterile 10 mg/mL Ca^2+ stock and 1.25 mL of the sterile 10 mg/mL Mg^2+ stock solutions were added per 1 L of autoclaved LB or BHI media to obtain 25 mg/L Ca^2+ and 12.5 mg/L Mg^2+ ions, respectively.
(§3) General Assay Protocol: Stock bacterial cultures were streaked onto LB or BHI agar plates and grown overnight at 37° C. Fresh aliquots of cation supplemented media were inoculated with single bacterial colonies and the cultures were grown overnight at 37° C. with shaking (240 rpm). The following morning, cultures were diluted 10-fold into fresh media and grown at 37° C. until bacteria had reached mid-log phase growth (OD600˜0.4-0.6). The cultures were then diluted into fresh media to achieve final OD600 readings of 0.017. Aliquots of these diluted cultures (30 μL) were added to clear, flat-bottom 384-well polystyrene plates that were previously stamped with 0.5 μL of test compounds in 20 μL of media (yielding initial OD600=0.01 bacterial cultures). All compounds were tested in dose-response with concentration ranges during the proliferation assays from 100 μM to 46 nM (3-fold dilution series). A second set of baseline control plates were prepared analogously, but without any bacteria added, to correct for possible compound absorbance and/or precipitation. […] Plates were then read at 600 nm using a Molecular Devices SpectraMax Plus384 microplate reader. […] Results presented represent the averages of EC50 values obtained from at least four replicates.
(§4) Evaluating analogs for inhibiting the growth of E. coli and the ESKAPE bacteria. Analogs were initially tested for antibacterial efficacy against representative strains of antibiotic-sensitive E. coli and the ESKAPE bacteria. To determine compound efficacy, bacterial proliferation assays were carried out in liquid media culture supplemented with physiological concentrations of free calcium and magnesium cations. For these assays, bacterial cultures (OD600=0.01) were exposed to test compounds in 8-point, 3-fold dilution series (100 μM to 46 nM concentration range), in 384-well plates. After addition of compounds to cultures, the plates were sealed with Breathe-Easy gas permeable membranes and allowed to grow to mid-log phase (OD600˜0.4-0.6), whereupon final OD600 readings were taken to assess for bacterial growth and inhibition.

[2] = test system: Enterobacter cloacae strain CDC 442-68 (ATCC #13047); experiment: bacterial proliferation assay, E. cloacae; format: cell-based; settings: ATCC13047, read-out: Bacterial Proliferation EC50 E. cloacae
Experimental: as §1, §2, §3, §4

E. coli GroEL/ES = target: T1, E. coli GroEL/ES (Escherichia coli, UniProt P0A6F5); experiment: GroEL/ES-mediated dMDH refolding assay; format: biochemical
T1 construct: made in house; host or cells: GroEL in NEB 5-alpha E. coli; GroES in E. coli BL21 (DE3)
T1 sequence (P0A6F5 2-548): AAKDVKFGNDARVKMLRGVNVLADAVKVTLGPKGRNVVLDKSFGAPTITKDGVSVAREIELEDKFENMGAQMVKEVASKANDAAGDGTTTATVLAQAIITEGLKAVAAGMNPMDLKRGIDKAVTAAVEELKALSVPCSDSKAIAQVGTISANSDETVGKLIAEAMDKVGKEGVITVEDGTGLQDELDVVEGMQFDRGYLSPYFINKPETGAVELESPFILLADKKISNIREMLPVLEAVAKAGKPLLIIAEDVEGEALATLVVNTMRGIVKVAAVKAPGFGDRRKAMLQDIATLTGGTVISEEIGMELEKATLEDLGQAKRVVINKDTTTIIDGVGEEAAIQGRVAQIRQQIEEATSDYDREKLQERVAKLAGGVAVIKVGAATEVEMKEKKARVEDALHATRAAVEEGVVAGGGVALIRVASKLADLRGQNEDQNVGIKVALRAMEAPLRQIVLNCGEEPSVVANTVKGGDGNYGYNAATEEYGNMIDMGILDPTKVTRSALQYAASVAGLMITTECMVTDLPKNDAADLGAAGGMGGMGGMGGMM
Experimental: Evaluating compounds for inhibition in the GroEL/ES-mediated dMDH refolding assay. All compounds were evaluated for inhibiting E. coli GroEL/ES-mediated refolding of the denatured MDH reporter enzyme. Reagent preparation: For these assays, four primary reagent stocks were prepared: 1) GroEL/ES-dMDH binary complex stock; 2) ATP initiation stock; 3) EDTA quench stock; 4) MDH enzymatic assay stock. Denatured MDH (dMDH) was prepared by 2-fold dilution of MDH (5 mg/ml, soluble pig heart MDH from Roche, product #10127248001) with denaturant buffer (7 M guanidine-HCl, 200 mM Tris, pH 7.4, and 50 mM DTT). MDH was completely denatured by incubating at room temperature for >45 min. The binary complex solutions were prepared by slowly adding the dMDH stock to a stirring stock with GroEL and GroES in folding buffer (50 mM Tris-HCl, pH 7.4, 50 mM KCl, 10 mM MgC2, and 1 mM DTT). […] For the ATP initiation stock, ATP solid was diluted into folding buffer to a final concentration of 2.5 mM. Quench solution contained 600 mM EDTA (pH 8.0). The MDH enzymatic assay stock consisted of 20 mM sodium mesoxalate and 1.6 mM NADH in reaction buffer (50 mM Tris-HCl, pH 7.4, 50 mM KCl, and 1 mM DTT).
Assay Protocol: First, 30 μL aliquots of the GroEL/ES-dMDH binary complex stocks were dispensed into clear, 384-well polystyrene plates. […] The chaperonin-mediated refolding cycles were initiated by addition of 20 μL of ATP stock (reagent concentrations during refolding cycle: 50 nM GroEL, 60 nM GroES, 12 nM dMDH, 1 mM ATP, and compounds of 100 μM to 46 nM, 3-fold dilution series) and the refolding reactions were incubated at 37° C. […] Next, the assay was quenched by addition of 10 μL of the EDTA stock to give a final concentration of 100 mM in the wells. […] A340 nm measurements were recorded at 0.5 minutes (start point) and at successive time points until the amount of NADH consumed reached ˜90% (end point, generally between 20-35 minutes).
Evaluating analogs for inhibiting GroEL/ES-mediated substrate refolding functions. […] We first evaluated all test compounds in our standard GroEL/ES-mediated refolding assays that employ either malate dehydrogenase (MDH) or rhodanese (Rho) as the denatured substrate reporter enzymes. When denatured, these enzymes are efficiently folded by GroEL/ES in the absence of inhibitors, and thus act as reporters to determine the degree of inhibition against the bacterial chaperonin system. Inhibition was examined in the presence of these two orthogonal substrates in order to support that GroEL/ES inhibitors were on-target. To further support on-target effects against GroEL/ES, we counter-screened for inhibition of the native MDH and Rho enzymatic reporter reactions, where test compounds were added after the denatured MDH and Rho substrate enzymes were completely refolded by GroEL/ES.

[3] = without NfsB nitroreductase, read-out: GroEL/ES-dMDH Refolding IC50

Compound | EC50 [1] [µM] | EC50 [2] [µM] | IC50 (E. coli GroEL/ES) [µM] | GroEL/ES inhibition in words (E. coli GroEL/ES; standard dMDH and dRho refolding assays, no nitroreductase) | IC50 (E. coli GroEL/ES; [3]) [µM]
COc1ccc(C(=O)N/N=C/c2cccc3ccccc23)cc1 [Compound 33, 4-methoxy-N′-(naphthalen-1-ylmethylene)benzohydrazide] | > 100 | > 100 | > 100 | – | –
O=C(N/N=C/c1ccc(O)c2ncccc12)c1cccs1 [Compound 3, N′-((8-hydroxyquinolin-5-yl)methylene)thiophene-2-carbohydrazide] | 99 | 92 | 65 | – | –
O=C(N/N=C/c1ccc(O)c2ncccc12)c1ccncc1 [Compound 6, N′-((8-hydroxyquinolin-5-yl)methylene)isonicotinohydrazide] | > 100 | > 100 | > 100 | – | –
CN(C)c1ccc(C(=O)N/N=C/c2ccc(O)c3ncccc23)cc1 [Compound 8, 4-(dimethylamino)-N′-((8-hydroxyquinolin-5-yl)methylene)benzohydrazide] | > 100 | > 100 | 27 | – | –
CCOc1ccc(S(=O)(=O)Nc2ccc(C(=O)N/N=C/c3ccc([N+](=O)[O-])o3)cc2)cc1 [Compound 28, 4-ethoxy-N-(4-(2-((5-nitrofuran-2-yl)methylene)hydrazine-1-carbonyl)phenyl)benzenesulfonamide] | > 100 | > 100 | 36 | – | –
CN(C)c1ccc(C(=O)N/N=C/c2ccc([N+](=O)[O-])o2)cc1 [Compound 21, 4-(dimethylamino)-N′-((5-nitrofuran-2-yl)methylene)benzohydrazide] | > 100 | > 100 | – | generally the most potent GroEL/ES inhibitors | 26
O=Cc1ccc([N+](=O)[O-])o1 [Compound 41, reference compound] | 10 | 13 | 78 | – | –
O=C(N/N=C/c1ccc(O)c2ncccc12)c1cccc(Oc2ccccc2)c1 [Compound 11, N′-((8-hydroxyquinolin-5-yl)methylene)-3-phenoxybenzohydrazide] | > 100 | > 100 | 13 | – | –
COc1ccc(C(=O)N/N=C/c2ccc([N+](=O)[O-])o2)cc1 [Compound 20, 4-methoxy-N′-((5-nitrofuran-2-yl)methylene)benzohydrazide] | > 100 | > 100 | – | – | 69
COc1ccc(C(=O)N/N=C/c2ccccc2)cc1 [Compound 37, N′-benzylidene-4-methoxybenzohydrazide] | > 100 | > 100 | > 100 | – | –
O=[N+]([O-])c1ccc(O)c2ncccc12 [Nitroxoline, reference compound] | 2.8 | 6.6 | 50 | – | –
COc1ccc(C(=O)N/N=C/c2ccc(O)cc2)cc1 [Compound 35, N′-(4-hydroxybenzylidene)-4-methoxybenzohydrazide] | > 100 | > 100 | > 100 | – | –
O=C1CN(/N=C/c2ccc(O)c3ncccc23)C(=O)N1 [Compound 2, 1-(((8-hydroxyquinolin-5-yl)methylene)amino)imidazolidine-2,4-dione] | > 100 | > 100 | > 100 | – | –
